Source: US11452699B2, “Method of treating or preventing tumors of the central nervous system” (Berg LLC, priority 2011, dated 2022)

Tests used:
Assay type in all cases: in vivo
[1] = tested on: CNS chloroleukemia (metastatic, leukemic CNS tumors); experiment: Long term effect of CoQ10 on CNS chloroleukemia in paraplegic Fischer 344 rats (Example 2)
Method: FIG. 4: Long-term Effect of CoQ10 on CNS Leukemia. 300 paraplegic animals with overt CNS leukemia were randomized into two groups of 150 animals each: one received phosphate buffered saline (PBS) and the other group received 100 mg/kg CoQ10 once daily starting on day 1 through day 28 (first cycle). A second cycle of 100 mg/kg CoQ10 once daily started on day 35 and continued through day 62. Animals received two cycles of 28 days each of CoQ10. On days 173 and 195 as indicated by *, 5 animals were sacrificed for necropsy and pathology analysis.
The model of CNS chloroleukemia in Fischer 344 rats provided in Example 1 was used for long term studies of the treatment of metastatic, leukemic CNS tumors. As in Example 1 chloroleukemic cells were injected into the rats as newborns and lipopolysaccharide (LPS) was given as a first-line of treatment. The cure rate with this regimen was approximately 50%, and approximately 10% of survivors developed CNS leukemia as judged by their motor skills and the presence of quadriplegia and paraplegia.
For this study of long term effect of CoQ10 on CNS leukemia, 300 paraplegic animals with overt CNS leukemia were randomized into two groups of 150 animals each. Group one received a saline control. Group two received 100 mg/kg CoQ10 once daily starting on day 1 through day 28 (first cycle). The second cycle started on day 35 and continued through day 62. […]

[2] = tested on: CNS chloroleukemia (chloroleukemic cell line MIAC51); experiment: Treatment of CNS chloroleukemia in paraplegic Fischer 344 rats with CoQ10 IV (Example 1)
Method: (§1) A model of CNS chloroleukemia was created using Fischer 344 rats, in which chloroleukemic cells were injected into the rats as newborns and lipopolysaccharide (LPS) was given as a first-line of treatment. The cure rate with this regimen was approximately 50%, and approximately 10% of survivors developed CNS leukemia as judged by their motor skills and the presence of quadriplegia and paraplegia.
(§2) For this study, 2400 Fischer 344 neonates were injected with the chloroleukemic cell line MIAC51 and treated with LPS. All animals with overt signs of leukemia, i.e., systemic disease, were sacrificed by day 26. […] Of that cohort, 150 animals were selected with hind leg paraplegia on day 40, see FIGS. 1A and 1B. These animals were then re-randomized into 5 groups: group 1 received no treatment, group 2 received excipient control IV, group 3 received 5 mg/kg CoQ10 IV (i.e., 15 mg/kg/day), group 4 received 10 mg/kg IV (i.e., 30 mg/kg/day), and group 5 received 25 mg/kg IV (i.e., 75 mg/kg/day) for 4 weeks, 3 times daily.

[3] = tested on: chloroleukemic cells; experiment: First-line lipopolysaccharide treatment of chloroleukemia in Fischer 344 rats injected as newborns (model creation)
Method: as §1, §2

| Compound | necropsy and pathological analysis for chloroleukemia or CNS tumors ([1]; 100 mg/kg CoQ10, five animals sacrificed on days 173 and 195) | recovery of motor skills / ability to walk ([1]; 100 mg/kg IV once daily, two cycles of 28 days (days 1-28 and 35-62)) | signs of improvement (CNS abnormalities, motor skills) ([2]; 5 mg/kg IV 3 times daily (15 mg/kg/day) for 4 weeks, group 3) | MRI for tumor cells ([2]; 5 mg/kg IV 3 times daily (15 mg/kg/day), group 3) | signs of improvement (CNS abnormalities, motor skills) ([2]; 10 mg/kg IV 3 times daily (30 mg/kg/day) for 4 weeks, group 4) | MRI for tumor cells ([2]; 10 mg/kg IV 3 times daily (30 mg/kg/day), group 4) | recovery of motor skills / ability to walk ([2]; 25 mg/kg IV three times per day (75 mg/kg/day) for 4 weeks, group 5) | MRI for tumor cells ([2]; 25 mg/kg IV three times per day (75 mg/kg/day), group 5, FIGS. 3A and B) | mortality due to CNS tumors (mortality curves) ([2]; FIG. 2, animals treated with or without CoQ10, 5, 10, 25 mg/kg IV 3 times daily) | cure rate ([3]; LPS as first-line treatment after injection of chloroleukemic cells into newborn rats) | survivors that developed CNS leukemia (motor skills, quadriplegia and paraplegia) ([3]; survivors of LPS first-line regimen) |
| --- | --- | --- | --- | --- | --- | --- | --- | --- | --- | --- | --- |
| COC1=C(OC)C(=O)C(C/C=C(\C)CC/C=C(\C)CC/C=C(\C)CC/C=C(\C)CC/C=C(\C)CC/C=C(\C)CC/C=C(\C)CC/C=C(\C)CC/C=C(\C)CCC=C(C)C)=C(C)C1=O [CoQ10, Coenzyme Q10] | No evidence of chloroleukemia or CNS tumors were found | significant recovery of their motor skills and regained their ability to walk | did not exhibit any signs of improvement | positive for tumor cells | did not exhibit any signs of improvement | positive for tumor cells | significant recovery of their motor skills and regained their ability to walk | lack of tumor cells | decrease in mortality due to CNS tumors is observed in a dose-dependent manner | – | – |
| lipopolysaccharide [lipopolysaccharide (LPS)] | – | – | – | – | – | – | – | – | – | approximately 50% | approximately 10% |
